Laboratory results from article PMC7363885, “Fluorescent artificial receptor-based membrane assay (FARMA) for spatiotemporally resolved monitoring of biomembrane permeability” (Communications Biology, 2020).
“Also recorded” adds a separate entry of the source. Where two headings read alike, the source gives them in different places. Marks after values point to notes of the source that are not given here.

What was measured:
in vitro = test: in vitro
From the text: Elementary physical parameters, such as permeability coefficients, can be extracted from the full kinetic FARMA data. This kinetic profile → parameter mapping requires some assumptions to be made in regard to the permeation mechanism. We applied a reported permeation model for liposomes[31] to arrive at permeation rate constants (kp) and apparent permeability coefficients (Papp). The derivation of the mathematical relation (1), linking the fundamental permeability rate constant and permeability coefficient to experimental measurable kobs rate constants, the known total analyte and total FAR concentration, and the experimentally determined liposome radius (r), is shown in the Supplementary Information.1 Papp=kp⋅r/3=kobs/canalyte⋅cFAR⋅r/3 […]
The volume-to-surface correction factor r/3 accounts for the fact that the observed rates depend on the size, i.e., radius r, of the liposomal assembly. […] The initial-rate method can also be applied, see the Supplementary Information. Moreover, kobs/canalyte can be estimated by single-point measurements at selected canalyte concentration.
A solution of 2.5 mg/mL of POPC and 0.33 mg/mL of POPS in chloroform was purged with nitrogen and dried overnight under […] vacuum. […] The resulting FAR-loaded liposomes were separated from non-encapsulated species by size-exclusion chromatography (NAP-25 column), while maintaining the same buffer. The absence of non-encapsulated FAR was confirmed by adding a non-membrane-permeable species such as tryptophan to a fluorescence cuvette containing 25 µL of liposomes diluted in 1 mL HEPES (10 mM) buffer. Complete removal of non-encapsulated FAR is indicated by the absence of a significant fluorescence change upon Trp addition.
In a typical experiment, 20 µL of liposome solution loaded with FAR was diluted in 1 mL HEPES buffer (10 mM, pH 7.0) in a 1 mL quartz cuvette. An emission spectrum was recorded after 10 min of “equilibration time” on a Varian Eclipse spectrofluorometer thermostated at 22 °C with a water bath using λexc = 400 nm for FAR-1, λexc = 310 nm for FAR-2, and λexc = 330 nm for FAR-3. In the time-resolved experiments, the emission intensity at λobs = 450 nm for FAR-1, λobs = 370 nm for FAR-2, and λobs = 370 and 500 nm for FAR-3 (the latter is the emerging excimer band for certain FAR-3•analyte complexes) was recorded with an averaging time of 0.5 s. […] For single-point experiments, a full spectrum was recorded after a fixed time or several time intervals after analyte addition. […] Only FAR-analyte combinations were used for FARMA, for which no significant autofluorescence and competitive light absorption of the analyte occurred.
For each experiment, measurements from 6 injections were accumulated and the average of these traces was used for data analysis.
Calculation of the unimolecular permeation rate constants ( kp) and of the apparent permeability coefficients (Papp).
The passive diffusion (permeation) of small non-charged compounds follows a modified Fick’s law and can be expressed by a first order kinetics.1 Similar to first order chemical reactions, the kinetics curve can therefore be fitted monoexponentially to obtained the observed permeation rates (kobs). In our assay set-up, such an exponential fit is an approximation, since it neglects that a certain fraction of transported analyte is bound to the FAR and cannot exit the liposome. Nevertheless, the fit of the kinetic curves of the […]
approximation is justified.

FAR-1 = test: Fluorescence titration, FAR•analyte complex formation in homogeneous solution; assay type: binding
Protocol: (§1) Fluorescence titrations were carried out in aqueous HEPES buffer (10 mM, pH 7, 22 °C) unless stated otherwise. To a solution of the FAR (typically at 10–30 μM) was stepwise added a solution of the analyte (typically up to 2 mM) and the fluorescence spectra were recorded. The normalized emissions at 450 nm (FAR-1) or at 370 nm (FAR-2) were fitted with an equation for a 1 : 1 binding by a least-square fit. The resulting affinity constants are reported in Supplementary Table 1. Representative titration plots are shown in Supplementary Fig. 1. Note that the high CB8-dye binding affinities correspond to a near quantitative degree of host-dye complexation, i.e., quantitative formation of the FAR, such that the subsequent binding of the analyte can be treated independently.

[1] = PAMPA; cited from earlier work
FAR-2 = test: Fluorescence titration, FAR•analyte complex formation in homogeneous solution; details: 10 mM HEPES buffer (pH 7), 1:1 binding model, error estimate ≤ 20%
Protocol: as §1, with “1.” for “1. Note that the high CB8-dye binding affinities correspond to a near quantitative degree of host-dye complexation, i.e., quantitative formation of the FAR, such that the subsequent binding of the analyte can be treated independently.”

[2] = Dye displacement membrane assay (liposome-encapsulated host•dye ensembles)
From the text: Supplementary Figure 13 | Graphical representation of membrane assays using dye displacement for signaling. Diffusion of analytes through a lipid membrane is detected by displacement of the dye from (a) a host•dye or (b) a host•dye•quencher complex, leading to reduction or enhancement in emission intensity.
Supplementary Figure 14 | Membrane permeation monitoring of analytes by dye displacement. (a) Time-resolved changes in fluorescence intensity of CB7•BE-loaded liposomes (λexc = 347 nm, λobs = 500 nm) upon addition of the membrane-permeable analyte tyramine and membrane destabilizing peptide melittin.
(b) Evolution of fluorescence intensity after addition of dimethylbenzylamine (DMBA) to CB7•PAL-loaded liposomes (λexc = 347 nm, λobs = 500 nm). (c) Fluorescence response after addition of the […]
tryptophan to liposomes loaded with CB8•MV•2,6-ANS (λexc = 380 nm, λobs = 463 nm). […]
Combing equations S1 and S2, one arrives at Papp = kp∙(r/3) = kobs/canalyte∙cFAR∙(r/3) (equation 1 in main text)
Dye displacement membrane assay
Dye displacement membrane assays rely on selective encapsulation of reporter pairs inside liposomes and the reversible interaction between the receptor and the translocated analyte. To conduct the assay, liposomes containing the chemosensing ensemble composed of a macrocyclic host and a dye are prepared and purified, such that a subsequently added analyte affects the dye fluorescence only if it can enter the vesicle and displaces the dye from the macrocycle. Until now, only the dye displacement has been used as the signaling mechanism for tandem membrane assays,3, 4 whereby the competitive displacement of the dye from such host•dye complexes upon analyte addition restores the fluorescence features of the dye in solution, Supplementary Figures 13 - 14.
Specifically, this signaling mechanism has been mostly employed with macrocyclic host s with cavity space that is capable o f forming 1:1 complex es, e.g., cucurbit[7]uril (CB7) and the dyes berberine (BER) or palmatine (PAL), see Supplementary Figure 13a, or with p-sulfonato calix[4]arene (CX4) and lucigenin.3,4 Expanding the repertoire of chemosensors for tandem membrane assay s, we exploit herein also the ability of a larger macrocyclic host such as cucurbit[8]uril (CB8) to form 1:1:1 ternary complexes,5-7 and utilize here the quencher methyl viologen (MV) in combination with the fluorescent dyes 5-hydroxy tryptophan (5HO-Trp), 2-anilinonaphthalene -6-sulfonic acid (2,6-ANS) or dapoxyl sulfonic acid, sodium salt (DapoxS), Supplementary Figure 13b. Upon addition of an analyte, the fluorescent dye, the quencher or both the fluorescent dye and quencher are displaced from the CB8 cavity, which in each case is reflected by an increase in the emission intensity of the dye (switch -on displacement assay), Supplementary Figures 14- […]
The dye displacement signal strategy has two important disadvantages compared to the preferred fluorescent artificial receptor (FAR) assays:
(i) The dye displacement strategy is limited to strongly binding analytes, i.e., K(analyte) ≥ K(dye), otherwise a large excess concentration of analyte is needed to generate significant

Caco-2 = details: cited from earlier work
[3] = Protocol: Supplementary Table 3 | Qualitative assessment of membrane permeability for more tha n 90 different organic compoundsa investigated by the FARMA-assay with receptors FAR-1, FAR-2, and FAR-3, and, for comparison, investigations by the dye displacement signal generation strategy with the sensing ensembles (CB8•MV•2,6-ANS, CB8•MV•5HO-Trp, CB7•BE, and CB7•PAL). […]
a See also Fig. 2 in main text for chemical structures. b λexc = 400 nm, λobs = 450 nm. c λexc = 310 nm, λobs = […]
ethanol (10 mM stock). m Emerging excimer band at λobs = 500 nm was monitored. n Control experiment in the absence of host (CB8) was also carried out. o λobs = 500 nm was chosen to by-pass the self-fluorescence

[4] = Aliquot analysis/flat lipid bilayer (macroscopic bilayer of brain phospholipids); cited from earlier work
[5] = 298 K; cited from earlier work
[6] = FAR-1, 10 mM HEPES buffer (pH 7), 1:1 binding model, error estimate ≤ 20%
[7] = monoexponential fit, analyte 40 µM (bulk), FAR-2 ca. 500 µM in the liposome interior, 20% error
[8] = dye displacement, CB7•BE-, CB8•MV•5OH-Trp- or CB8•MV•2,6-ANS-loaded liposomes
[9] = FARMA with FAR-loaded liposomes or GUVs

Structure (SMILES): Oc1ccccc1 [Phenol, phenol]
- Papp (in vitro; not told, pH 7): 112 ×10⁻⁶ cm/s
- kobs (in vitro; not told, pH 7): 2.7 s–1
- log(kobs) (in vitro; not told, pH 7): 0.4314
- time of FARMA signal response (t) (in vitro; not told, pH 7): < 5 s
- Ka (FAR-1; pH 7): 56
- Papp Literature [1]: 47

Structure (SMILES): NC(=O)C(N)Cc1c[nH]c2ccccc12 (stereo not drawn) [TrpNH2, tryptophanamide]
- Ka (FAR-1; [6]): 460 10^3 M−1
- Papp Literature [1]: 2.7 10^−6 cm s^−1

Structure (SMILES): Nc1ccccc1 [Aniline, aniline]
- kobs (in vitro; [7]): 7.5 s–1
- kp (in vitro; not told, pH 7): 9400^f
- kobs (in vitro; source data of Fig. 5): 7.5
- log(kobs) (in vitro; source data of Fig. 5): 0.8751
- Ka (FAR-1; [6]): 33 10^3 M−1
- Ka (FAR-2): 25 10^3 M−1
- Papp Literature [1]: 76 10^−6 cm s^−1

Structure (SMILES): NCCCCCN [cadaverine]
- membrane permeability (in words) [2, 8]: membrane impermeable

Structure (SMILES): O=C(O)C1C2CC3CC(C2)CC1C3 (stereo not drawn) [2-adamantyl-carboxylate]
- membrane permeability (in words) [2]: membrane-permeable, albeit at a slower rate

Structure (SMILES): CNC(=C[N+](=O)[O-])NCCSCc1ccc(CN(C)C)o1 [Ranitidine, ranitidine, reference compound]
- Papp at 100 µM (in vitro; not told, pH 7): 0.013 ×10⁻⁶ cm/s
- Ka (FAR-1; [6]): 2 10^3 M−1
- Papp Literature (Caco-2; no passive permeation but active transport): 0.49 10^−6 cm s^−1
- Papp Literature [1]: 0.88 10^−6 cm s^−1

Structure (SMILES): NCCc1ccc(O)cc1 [tyramine]
- membrane permeability (in words) (in vitro; [9]): pass the membrane within several minutes to hours
- membrane permeability (in words) [2, 8]: membrane-permeable

Structure (SMILES): COc1ccc(B(O)O)cc1 [p-anisylboronic acid]
- Ka (FAR-2): 4.8 10^3 M−1

Structure (SMILES): N[C@@H](Cc1ccccc1)C(=O)O [Phe, phenylalanine]
- Ka (FAR-1; [6]): 5 10^3 M−1
- membrane permeability (in words) [2, 8]: membrane impermeable

Structure (SMILES): COc1ccc(O)cc1 [4-methoxyphenol]
- Ka (FAR-2): 2.4 10^3 M−1

Structure (SMILES): N#Cc1ccc(O)cc1 [4CN-phenol, 4-cyanophenol]
- kobs (in vitro; not told, pH 7): 40
- log(kobs) (in vitro; not told, pH 7): 1.602
- Ka (FAR-2): 5.2 10^3 M−1
- Qualitative assessment of membrane permeability [3]: +
- Papp Literature [1]: 17 10^−6 cm s^−1

Structure (SMILES): CC(C)NCC(O)COc1cccc2ccccc12 (stereo not drawn) [propranolol, reference compound]
- Ka (FAR-1; [6]): 3 10^3 M−1
- membrane permeability (in words) [2, 8]: membrane permeable

Structure (SMILES): CC12CC3CC(C)(C1)CC(N)(C3)C2 [Memantine, 3,5-dimethyladamantan-1-amine, reference compound]
- Papp (in vitro; not told, pH 7): 24 ×10⁻⁶ cm/s
- Papp Literature (Caco-2): 43 10^−6 cm s^−1

Structure (SMILES): N#Cc1ccccc1O [2CN-phenol, 2-cyanophenol]
- kobs (in vitro; [7]): 10 s–1
- kobs (in vitro; source data of Fig. 5): 10
- log(kobs) (in vitro; source data of Fig. 5): 1
- Ka (FAR-2): 5.8 10^3 M−1

Structure (SMILES): Clc1ccccc1Cl [1,2-dichlorobenzene]
- Qualitative assessment of membrane permeability [3]: +

Structure (SMILES): Oc1ccc2ccccc2c1 [2-naphthol]
- membrane permeability (in words) (in vitro): permeable
- Qualitative assessment of membrane permeability [3]: +

Structure (SMILES): NCCCNCCCCNCCCN [spermine]
- membrane permeability (in words) [2, 8]: membrane impermeable

Structure (SMILES): c1ccc2[nH]ccc2c1 [Indole, indole]
- membrane permeability (in words) (in vitro; [9]): instantaneous; also recorded: permeating
- kobs (in vitro; [7]): 1.8 s–1
- kp (in vitro; not told, pH 7): 3200
- kobs (in vitro; source data of Fig. 5): 1.8
- log(kobs) (in vitro; source data of Fig. 5): 0.2553
- Papp Literature (Caco-2): 57 10^−6 cm s^−1
- Papp Literature [4]: 250 10^−6 cm s^−1

Structure (SMILES): CCOc1ccc(O)cc1 [4-ethoxyphenol]
- Ka (FAR-1; [6]): 1 10^3 M−1
- Ka (FAR-2): 1.0 10^3 M−1

Structure (SMILES): O=C([O-])c1ccccc1.[Na+] [sodium benzoate]
- Ka (FAR-2): < 1 10^3 M−1

Structure (SMILES): Oc1ccc(O)cc1 [1,4-dihydroxybenzene]
- Ka (FAR-2): 2.9 10^3 M−1

Structure (SMILES): Cc1ccc(C)cc1 [p-xylene, 1,4-dimethylbenzene]
- kobs (in vitro; [7]): 17 s–1
- kobs (in vitro; source data of Fig. 5): 17
- log(kobs) (in vitro; source data of Fig. 5): 1.23
- Qualitative assessment of membrane permeability [3]: +

Structure (SMILES): COc1ccc2cc3[n+](cc2c1OC)CCc1cc2c(cc1-3)OCO2 [BER, berberine]
- dissociation rate from CB7 [5]: 0.8 s⁻¹
